Series [1] relates to axenic amastigotes of L. donovani, strain MHOM-ET-67/L82. In words: In vitro activity against L. donovani axenic amastigotes, serial drug dilution assay. The format is cell-based, Leishmania donovani. Particulars: Leishmania donovani. As for the experimental part:
(§1) Drug stock solutions (10mg/ml) were in DMSO (100%). […] Selectivity index (SI) was calculated as IC50 L6 cells/IC50 parasite.

A short description of series [2]: Cytotoxicity on macrophages infected with L. donovani. The format is cell-based, mouse. As to conditions: mouse.
Series [3] deals with T. cruzi, strain Tulahuen C4, intracellular amastigotes. Put plainly: microbe, parasite or virus in culture. Particulars: Trypanosoma cruzi, TULAHUEN
As for the experimental part:
as §1

Another series is described as follows: in vitro. As to conditions: rat. The procedure:
as §1

For series [4], the system named is T. b. rhodesiense strain STIB 900, trypomastigotes. In words: In vitro activity against T. b. rhodesiense, serial drug dilution assay. As to conditions: for IC50: Trypanosoma brucei. The procedure:
as §1

A further series deals with P. falciparum strain K1. In words: In vitro activity against P. falciparum, serial drug dilution assay. Particulars: for IC50: Plasmodium falciparum. As for the experimental part:
as §1

Series [5] deals with intracellular amastigotes of L. donovani strain MHOM-ET-67/L82. In words: Activity against Leishmania donovani intracellular amastigotes in mouse peritoneal macrophages. As to conditions: Leishmania donovani, Peritoneal macrophage, in Mus musculus. The procedure:
After 24 h 1.2 x 10^5 amastigote L. donovani in 100 μl were added. The amastigotes were taken from an axenic culture grown at pH 5.4. Four hours later, the medium containing free amastigote forms was removed and replaced by fresh medium. The next day the medium was replaced by medium with or without a serial drug dilution of seven 3-fold dilution steps covering a range from 30 to 0.04 μg/ml. Parasite growth in the presence of the drug was compared to control wells. After 96 h of incubation, the medium was removed and the slides fixed with methanol for 10 min followed by staining with a 10% Giemsa solution. Infected and non-infected macrophages were counted for the control cultures and those exposed to the serial drug dilutions. The infection rates were determined. The results were expressed as a percentage reduction in parasite burden compared to control wells, and the IC50 was calculated by linear regression analysis. The collection of mouse peritoneal macrophages was done at the Swiss Tropical and Public Health Institute (Basel) according to the rules and regulations for the protection of animal rights ("Tierschutzverordnung") of the Swiss "Bundesamt für Veterinärwesen".

The mark [6] stands for this setting: axenic amastigotes, strain MHOM-ET-67/L82, means of two independent assays, read-out: IC50 L. don. axen.
The mark [7] stands for this setting: macrophages infected with L. donovani, read-out: IC50 Cytotox. mac.inf.
Where [8] appears, read: 96 h, read-out: IC50 L. don. intracell.
Setting [9] is: L. donovani axenic amastigotes, read-out: L. don. axen. IC50.
[10] abbreviates: infected macrophages, read-out: Cytotox. mac.inf. IC50.
[11] abbreviates: read-out: L. don. intracell IC50.
[12] abbreviates: mouse peritoneal macrophages infected with L. donovani, macrophages infected with L. donovani, read-out: IC50 Cytotox. mac.inf.
[13] abbreviates: L6 cells, IC50 Cytotox. L6, L6 cells, means of two independent assays.

Counter-ions that a name gives are not always drawn. Like-named read-outs stand apart in the source and are kept apart here. Where only a bound is given, the exact number is not on record here.

By IC50 is commonly meant the concentration that inhibits the measured activity by half.

For the compound `OCCN(CCO)c1nc(N2CCCCC2)c2nc(N(CCO)CCO)nc(N3CCCCC3)c2n1` [Dipyridamole], the concentration for half-maximal inhibition (IC50) in series [1] (setting [6]) was 62 µM; in series [3] (read-out: IC50 T. cruzi), 29.3 µM; in “in vitro” (IC50 Cytotox. L6), 38.6 µM; in series [4] (read-out: IC50 T. b. rhod.) it was 7.45 µM; with P. falciparum strain K1 (K1, read-out: IC50 P. falc. K1), 1.3 µM; in series [5] (setting [8]), greater than 59.5 µM. Further, the IC50 at 96 h in series [2] (setting [7]) was greater than 59.5 µM. Besides, the “Activity against P. falciparum (in words)” value in the series with P. falciparum strain K1 (in vitro) is given as “selective activities”.

Turning to `COC1=CC(=O)C[C@@H](C)[C@]12Oc1c(Cl)c(OC)cc(OC)c1C2=O` [Griseofulvin], the IC50 in series [1] (setting [9]) is 87 µM; in series [3] (read-out: T. cruzi IC50), 87.3 µM; in “in vitro” (Cytotox. L6 IC50) it was 20.5 µM; in series [4] (read-out: T. b. rhod. IC50) it was 40 µM; in the series with P. falciparum strain K1 (K1, read-out: P. falc. IC50), 75.1 µM; in series [5] (setting [11]), greater than 85 µM. Besides, the IC50 at 96 h in series [2] (setting [10]) is greater than 85 µM.

In the case of `Cc1cn([C@H]2C[C@H](N=[N+]=[N-])[C@@H](CO)O2)c(=O)[nH]c1=O` [Zidovudine], the half-inhibitory concentration (IC50) in series [1] (setting [6]) is greater than 374 µM; in series [3] (read-out: IC50 T. cruzi) it was 156 µM; in the series “in vitro” (IC50 Cytotox. L6), 207 µM; in series [4] (read-out: IC50 T. b. rhod.), 140 µM; with P. falciparum strain K1 (K1, read-out: IC50 P. falc. K1), 175 µM; in series [5] (setting [8]), greater than 112 µM. Moreover, in series [2] (setting [7]), the half-maximal inhibitory concentration (IC50) at 96 h was greater than 112 µM.

`CN(C/C=C/C#CC(C)(C)C)Cc1cccc2ccccc12` [Terbinafine (Hydrochloride), Terbinafine]: the IC50 in series [1] (setting [6]) turned out to be 23 µM; in series [3] (read-out: IC50 T. cruzi) it was 40.9 µM; in the series “in vitro” (setting [13]), 47 µM; in series [4] (read-out: IC50 T. b. rhod.), 95.2 µM; in the series on P. falciparum strain K1 (K1, read-out: IC50 P. falc. K1) it was 7.72 µM; in series [5] (setting [8]), 69.5 µM. Besides, the IC50 at 96 h in series [2] (setting [12]) is greater than 91.5 µM.

With `NC12CC3CC(CC(C3)C1)C2` [Amantadine], the IC50 in series [1] (setting [6]) was greater than 595 µM; in series [3] (read-out: IC50 T. cruzi), 371 µM; in the series “in vitro” (IC50 Cytotox. L6), 215 µM; in series [4] (read-out: IC50 T. b. rhod.), 52.8 µM; in the series on P. falciparum strain K1 (K1, read-out: IC50 P. falc. K1) it was 5.67 µM; in series [5] (setting [8]), greater than 198 µM. For the same compound, the IC50 at 96 h in series [2] (setting [7]) was greater than 198 µM.

For `CN(C)CCCN1c2ccccc2Sc2ccc(C(F)(F)F)cc21` [Triflupromazine], the IC50 in series [1] (setting [9]) was 79.8 µM; in series [3] (read-out: T. cruzi IC50), 15 µM; in “in vitro” (setting [13]) it was 18.5 µM; in series [4] (read-out: IC50 T. b. rhod.), 1.42 µM; in the series on P. falciparum strain K1 (K1, read-out: P. falc. IC50) it was 2.72 µM; in series [5] (setting [11]), greater than 8.51 µM. Moreover, in series [2] (setting [10]), the MCC at 96 h is 28.4 µM. The selectivity ratio in series [4] (rat, L6 cells versus T. b. rhodesiense STIB 900 trypomastigotes) is 13.

For `Fc1ccc([C@@H]2CCNC[C@H]2COc2ccc3c(c2)OCO3)cc1` [Paroxetine], the IC50 in series [1] (setting [6]) is greater than 273 µM; in series [3] (read-out: IC50 T. cruzi) it was 14.4 µM; in the series “in vitro” (IC50 Cytotox. L6) it was 13.8 µM; in series [4] (read-out: IC50 T. b. rhod.), 1.13 µM; with P. falciparum strain K1 (K1, read-out: IC50 P. falc. K1), 9.23 µM; in series [5] (setting [8]) it was greater than 9.11 µM. In series [2] (setting [7]), the MCC at 96 h was 30.4 µM. For the same compound, in series [4] (rat), the selectivity ratio came to 12.

`CN1CCC(=C2c3ccccc3CCc3sccc32)CC1` [Pizotifen]: the IC50 in series [1] (setting [6]) is 215 µM; in series [3] (read-out: IC50 T. cruzi), 30.6 µM; in “in vitro” (setting [13]) it was 45 µM; in series [4] (read-out: IC50 T. b. rhod.), 3.99 µM; with P. falciparum strain K1 (K1, read-out: IC50 P. falc. K1), 1.86 µM; in series [5] (setting [8]), greater than 33.9 µM. Besides, the IC50 at 96 h in series [2] (setting [12]) was greater than 102 µM. In series [4] (rat), the selectivity ratio came out at 11.

As for `CN1CCN(CCCN2c3ccccc3Sc3ccc(C(F)(F)F)cc32)CC1` [Trifluoperazine], the IC50 was 52.9 µM in series [1] (setting [6]); 10.1 µM in series [3] (read-out: IC50 T. cruzi); 11 µM in the series “in vitro” (setting [13]); 1.23 µM in series [4] (read-out: IC50 T. b. rhod.); 1.48 µM with P. falciparum strain K1 (K1, read-out: IC50 P. falc. K1); greater than 7.36 µM in series [5] (setting [8]). Besides, the half-inhibitory concentration (IC50) at 96 h in series [2] (setting [7]) was 24.5 µM.

Turning to `CNCCC=C1c2ccccc2CCc2ccccc21` [Nortryptyline], the 50% inhibitory concentration (IC50) in series [1] (setting [6]) was greater than 342 µM; in series [3] (read-out: IC50 T. cruzi), 22.9 µM; in the series “in vitro”, 27.9 µM; in series [4] (read-out: IC50 T. b. rhod.) it was 1.17 µM; with P. falciparum strain K1 (K1, read-out: IC50 P. falc. K1), 0.58 µM; in series [5] (setting [8]), greater than 11.4 µM. Also, the IC50 at 96 h in series [2] (setting [7]) came out at 38 µM. Also, the “Selectivity index: IC50 Cytotoxicity L6/ IC50 T. b. rhodesiense” value in series [4] (rat) came to 24. Further, the selectivity ratio in series [4] (rat, Selectivity index: IC50 Cytotoxicity L6/ IC50 T. b. rhodesiense) is greater than 20; in the series with P. falciparum strain K1 (rat) it was 48.

These data come from PMC4535766, “Antiprotozoal Activity Profiling of Approved Drugs: A Starting Point toward Drug Repositioning” (PLoS ONE, 2015).
